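48-hour exposure; five concentrations; linearly interpolated endpoints. GI50 marks 50% less growth. Definition used: TGI = concentration required for complete inhibition of growth.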
What was measured:
Assay in all cases: NCI tumour cell line growth inhibition, 48 h
[1] = system: 786-0 renal
[2] = system: A498 renal
[3] = system: ACHN renal
[4] = system: BT-549 breast
[5] = system: CAKI-1 renal
[6] = system: CCRF-CEM leukemia
[7] = system: DU-145 prostate
[8] = system: EKVX NSCLC
[9] = system: HCT-116 colon
[10] = system: HCT-15 colon
[11] = system: HOP-62 NSCLC
[12] = system: HOP-92 NSCLC
[13] = system: HT29 colon
[14] = system: LOX IMVI melanoma
[15] = system: MALME-3M melanoma
[16] = system: MCF7 breast
[17] = system: MDA-MB-231 breast
[18] = system: MDA-MB-435
[19] = system: NCI-H226 lung
[20] = system: NCI/ADR-RES ovarian
[21] = system: OVCAR-8 ovarian
[22] = system: RXF 393 renal
[23] = system: SF-268 CNS
[24] = system: SF-295 CNS
[25] = system: SF-539 CNS
[26] = system: SK-MEL-2 melanoma
[27] = system: SK-MEL-28 melanoma
[28] = system: SN12C renal
[29] = system: SNB-19 CNS
[30] = system: SNB-75 CNS
[31] = system: SR leukemia
[32] = system: TK-10 renal
[33] = system: U251 CNS
[34] = system: UACC-62 melanoma
[35] = system: UO-31 renal
[36] = system: A549 NSCLC
[37] = system: COLO 205 colon
[38] = system: HCC-2998 colon
[39] = system: HL-60(TB) leukemia
[40] = system: K-562 leukemia
[41] = system: KM12 colon
[42] = system: M14 melanoma
[43] = system: MOLT-4 leukemia
[44] = system: NCI-H23 lung
[45] = system: NCI-H460 lung
[46] = system: NCI-H522 lung
[47] = system: OVCAR-3 ovarian
[48] = system: OVCAR-4 ovarian
[49] = system: SK-MEL-5 melanoma
[50] = system: SK-OV-3 ovarian
[51] = system: UACC-257 melanoma

SMILES: CCCCCCNC(=O)Nc1ccc2cc3ccc(NC(=O)NCCCCCC)cc3nc2c1
- GI50 [1]: 2520 nM
- TGI [1]: > 26600 nM
- GI50 [2]: 1880 nM
- TGI [2]: > 28700 nM
- GI50 [3]: 43500 nM
- TGI [3]: > 100000 nM
- GI50 [4]: 4090 nM
- TGI [4]: > 100000 nM
- GI50 [5]: > 26500 nM
- TGI [5]: > 100000 nM
- GI50 [6]: 258 nM
- TGI [6]: 714 nM
- GI50 [7]: 2000 nM
- TGI [7]: > 100000 nM
- GI50 [8]: 5790 nM
- TGI [8]: > 100000 nM
- GI50 [9]: 358 nM
- TGI [9]: 1250 nM
- GI50 [10]: > 100000 nM
- TGI [10]: > 100000 nM
- GI50 [11]: 1810 nM
- TGI [11]: 4880 nM
- GI50 [12]: 1670 nM
- TGI [12]: 4070 nM
- GI50 [13]: 2240 nM
- TGI [13]: > 100000 nM
- GI50 [14]: 268 nM
- TGI [14]: 737 nM
- GI50 [15]: 1630 nM
- TGI [15]: 3120 nM
- GI50 [16]: 396 nM
- TGI [16]: 1570 nM
- GI50 [17]: 1540 nM
- TGI [17]: 3110 nM
- GI50 [18]: 406 nM
- TGI [18]: 1510 nM
- GI50 [19]: 4950 nM
- TGI [19]: > 100000 nM
- GI50 [20]: 83700 nM
- TGI [20]: > 100000 nM
- GI50 [21]: 614 nM
- TGI [21]: 2880 nM
- GI50 [22]: 1400 nM
- TGI [22]: 5510 nM
- GI50 [23]: 1200 nM
- TGI [23]: 2960 nM
- GI50 [24]: 2320 nM
- TGI [24]: 6040 nM
- GI50 [25]: 1580 nM
- TGI [25]: 3000 nM
- GI50 [26]: 1900 nM
- TGI [26]: 4010 nM
- GI50 [27]: 1720 nM
- TGI [27]: 3140 nM
- GI50 [28]: 1080 nM
- TGI [28]: 2510 nM
- GI50 [29]: 1730 nM
- TGI [29]: 3360 nM
- GI50 [30]: 1450 nM
- TGI [30]: 3160 nM
- GI50 [31]: 284 nM
- TGI [31]: 1270 nM
- GI50 [32]: 23500 nM
- TGI [32]: > 100000 nM
- GI50 [33]: 336 nM
- TGI [33]: 1290 nM
- GI50 [34]: 1210 nM
- TGI [34]: 2530 nM
- GI50 [35]: > 100000 nM
- TGI [35]: > 100000 nM

SMILES: CC1(C)C(=O)/C(=C\c2ccccn2)C[C@]2(C)[C@H]3CC[C@@H]4[C@@H](C(=O)/C=C/c5ccccn5)CC[C@@]4(C)[C@]3(C)CC[C@@H]12
- GI50 [1]: 1200 nM
- TGI [1]: 2770 nM
- GI50 [2]: 1670 nM
- TGI [2]: 3110 nM
- GI50 [36]: 2020 nM
- TGI [36]: > 28200 nM
- GI50 [3]: 479 nM
- TGI [3]: 1690 nM
- GI50 [4]: 1380 nM
- TGI [4]: 4260 nM
- GI50 [37]: 1760 nM
- TGI [37]: 4380 nM
- GI50 [7]: 1760 nM
- TGI [7]: 3230 nM
- GI50 [38]: 1800 nM
- TGI [38]: 3490 nM
- GI50 [9]: 263 nM
- TGI [9]: 795 nM
- GI50 [39]: 486 nM
- TGI [39]: 3950 nM
- GI50 [11]: 2140 nM
- TGI [11]: 5820 nM
- GI50 [13]: 1050 nM
- TGI [13]: 3460 nM
- GI50 [40]: 347 nM
- TGI [40]: > 100000 nM
- GI50 [41]: 1670 nM
- TGI [41]: 3210 nM
- GI50 [14]: 232 nM
- TGI [14]: 565 nM
- GI50 [42]: 907 nM
- TGI [42]: 3140 nM
- GI50 [16]: 405 nM
- TGI [16]: 3890 nM
- GI50 [17]: 532 nM
- TGI [17]: 2530 nM
- GI50 [18]: 296 nM
- TGI [18]: 885 nM
- GI50 [43]: 537 nM
- TGI [43]: > 100000 nM
- GI50 [19]: 1800 nM
- TGI [19]: 4850 nM
- GI50 [44]: 2000 nM
- TGI [44]: 4630 nM
- GI50 [45]: 1970 nM
- TGI [45]: 4200 nM
- GI50 [46]: 2010 nM
- TGI [46]: 4520 nM
- GI50 [20]: 1470 nM
- TGI [20]: 5930 nM
- GI50 [47]: 538 nM
- TGI [47]: 1850 nM
- GI50 [48]: 2410 nM
- TGI [48]: > 100000 nM
- GI50 [21]: 493 nM
- TGI [21]: > 100000 nM
- GI50 [22]: 859 nM
- TGI [22]: 2260 nM
- GI50 [49]: 1510 nM
- TGI [49]: 2890 nM
- GI50 [50]: 3890 nM
- TGI [50]: > 100000 nM
- GI50 [31]: 342 nM
- TGI [31]: 2110 nM
- GI50 [33]: 749 nM
- TGI [33]: 2080 nM
- GI50 [51]: 1640 nM
- TGI [51]: 5470 nM
- GI50 [34]: 1190 nM
- TGI [34]: 2580 nM
- GI50 [35]: 787 nM
- TGI [35]: 2100 nM

— PubChem BioAssay (NCI)
